Measured values taken from ChEMBL document CHEMBL1201862, “PubChem BioAssay data set” (2004).
Calls of active or inactive are those of the source.

How the values were obtained:
HEK293 [1] = test: NOD2 signaling inhibitors in MDP-stimulated cells, cell-based, uHTS, luminescence (AID 2001); assay type: functional; settings: Homo sapiens
[2] = molecular target: T1, Corticotropin-releasing factor receptor 2/Corticotropin-releasing factor-binding protein (Homo sapiens, UniProt P24387+Q13324); test: Dose Response confirmation of uHTS hits for small molecule antagonists of the CRF-binding protein and CRF-R2 receptor complex.; assay type: functional; settings: read-out: IC50_Mean
T1 sequence (Q13324 whole entry): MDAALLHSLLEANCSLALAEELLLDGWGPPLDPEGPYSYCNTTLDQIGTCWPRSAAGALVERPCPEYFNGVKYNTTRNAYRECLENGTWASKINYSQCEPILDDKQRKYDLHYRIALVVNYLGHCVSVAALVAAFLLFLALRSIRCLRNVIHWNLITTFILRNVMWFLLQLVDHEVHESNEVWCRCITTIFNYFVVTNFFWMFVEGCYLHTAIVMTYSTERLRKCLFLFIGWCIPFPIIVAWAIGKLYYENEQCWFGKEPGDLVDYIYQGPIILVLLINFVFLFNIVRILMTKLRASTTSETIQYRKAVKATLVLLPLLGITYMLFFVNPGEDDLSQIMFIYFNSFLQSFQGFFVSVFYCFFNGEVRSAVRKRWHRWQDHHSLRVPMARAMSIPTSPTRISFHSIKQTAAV
T1 sequence (P24387 whole entry): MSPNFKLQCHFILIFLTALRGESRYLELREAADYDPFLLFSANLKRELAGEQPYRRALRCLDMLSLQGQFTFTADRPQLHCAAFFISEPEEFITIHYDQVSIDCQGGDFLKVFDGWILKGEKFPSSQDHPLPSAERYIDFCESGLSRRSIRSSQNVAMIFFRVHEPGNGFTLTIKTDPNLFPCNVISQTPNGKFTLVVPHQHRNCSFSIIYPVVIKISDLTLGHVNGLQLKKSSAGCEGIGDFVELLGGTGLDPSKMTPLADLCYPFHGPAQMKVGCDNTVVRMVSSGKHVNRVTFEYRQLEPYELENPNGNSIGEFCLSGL

HEK293 [3] = test: cells; assay type: functional, cell-based; settings: Homo sapiens
[4] = blockers of CRF-binding protein–CRF-R2 complex – cell-based, uHTS hits, 384-well, dose response (AID 651639); assay type: functional, Homo sapiens; settings: read-out: IC50_Mean
HEK293 [5] = test: cells; assay type: functional, cell-based; settings: Homo sapiens; remark: listed apart in the source
[6] = molecular target: T1, Corticotropin-releasing factor receptor 2/Corticotropin-releasing factor-binding protein; test: activators of CRF receptor 2 with binding protein – uHTS hits, confirmation (AID 602473); assay type: functional; settings: read-out: EC50_Mean
[7] = molecular target: Nucleotide-binding oligomerization domain-containing protein 2 (Homo sapiens, UniProt Q9HC29); test: inhibition of NOD2-driven NF-kB reporter – cell-based, luminescence, uHTS, HEK293 (AID 1566); assay type: functional
Sequence of Nucleotide-binding oligomerization domain-containing protein 2 (Q9HC29 whole entry, the tested form may be a part): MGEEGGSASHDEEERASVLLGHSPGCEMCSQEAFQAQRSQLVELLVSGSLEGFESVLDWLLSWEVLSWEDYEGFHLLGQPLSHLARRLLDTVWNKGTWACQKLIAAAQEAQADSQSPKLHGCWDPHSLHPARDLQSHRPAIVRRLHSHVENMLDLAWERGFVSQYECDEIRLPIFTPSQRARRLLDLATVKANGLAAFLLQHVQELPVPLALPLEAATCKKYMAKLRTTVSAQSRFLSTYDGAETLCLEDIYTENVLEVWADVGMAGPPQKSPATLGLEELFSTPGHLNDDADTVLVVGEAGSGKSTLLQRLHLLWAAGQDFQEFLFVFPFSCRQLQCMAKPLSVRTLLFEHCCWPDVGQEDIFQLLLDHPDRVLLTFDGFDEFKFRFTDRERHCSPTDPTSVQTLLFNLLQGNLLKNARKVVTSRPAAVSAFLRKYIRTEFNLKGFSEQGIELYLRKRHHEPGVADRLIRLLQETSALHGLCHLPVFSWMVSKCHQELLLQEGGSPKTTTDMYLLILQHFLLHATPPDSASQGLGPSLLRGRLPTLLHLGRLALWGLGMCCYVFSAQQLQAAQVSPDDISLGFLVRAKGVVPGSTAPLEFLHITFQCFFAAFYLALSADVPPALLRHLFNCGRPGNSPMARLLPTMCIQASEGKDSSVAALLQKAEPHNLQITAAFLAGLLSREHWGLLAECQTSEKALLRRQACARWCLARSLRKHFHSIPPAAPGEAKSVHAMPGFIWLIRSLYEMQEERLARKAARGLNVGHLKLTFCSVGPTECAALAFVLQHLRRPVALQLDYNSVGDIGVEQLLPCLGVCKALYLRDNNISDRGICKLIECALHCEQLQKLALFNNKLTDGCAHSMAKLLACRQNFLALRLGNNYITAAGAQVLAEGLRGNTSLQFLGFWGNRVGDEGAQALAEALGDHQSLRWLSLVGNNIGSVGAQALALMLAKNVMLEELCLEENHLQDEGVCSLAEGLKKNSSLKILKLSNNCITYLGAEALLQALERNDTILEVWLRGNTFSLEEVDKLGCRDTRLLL

Fatty acid synthase [8] = molecular target: T2, Fatty acid synthase (Homo sapiens, UniProt P49327); test: inhibition of human FAS-TE enzyme activity – biochemical, kinetic fluorescence intensity, dose response (AID 624326); assay type: functional;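 further: rate of fluorescence rise from hydrolysis of a fluorogenic O-methyl fluorescein ester substrate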
T2 sequence (P49327 whole entry): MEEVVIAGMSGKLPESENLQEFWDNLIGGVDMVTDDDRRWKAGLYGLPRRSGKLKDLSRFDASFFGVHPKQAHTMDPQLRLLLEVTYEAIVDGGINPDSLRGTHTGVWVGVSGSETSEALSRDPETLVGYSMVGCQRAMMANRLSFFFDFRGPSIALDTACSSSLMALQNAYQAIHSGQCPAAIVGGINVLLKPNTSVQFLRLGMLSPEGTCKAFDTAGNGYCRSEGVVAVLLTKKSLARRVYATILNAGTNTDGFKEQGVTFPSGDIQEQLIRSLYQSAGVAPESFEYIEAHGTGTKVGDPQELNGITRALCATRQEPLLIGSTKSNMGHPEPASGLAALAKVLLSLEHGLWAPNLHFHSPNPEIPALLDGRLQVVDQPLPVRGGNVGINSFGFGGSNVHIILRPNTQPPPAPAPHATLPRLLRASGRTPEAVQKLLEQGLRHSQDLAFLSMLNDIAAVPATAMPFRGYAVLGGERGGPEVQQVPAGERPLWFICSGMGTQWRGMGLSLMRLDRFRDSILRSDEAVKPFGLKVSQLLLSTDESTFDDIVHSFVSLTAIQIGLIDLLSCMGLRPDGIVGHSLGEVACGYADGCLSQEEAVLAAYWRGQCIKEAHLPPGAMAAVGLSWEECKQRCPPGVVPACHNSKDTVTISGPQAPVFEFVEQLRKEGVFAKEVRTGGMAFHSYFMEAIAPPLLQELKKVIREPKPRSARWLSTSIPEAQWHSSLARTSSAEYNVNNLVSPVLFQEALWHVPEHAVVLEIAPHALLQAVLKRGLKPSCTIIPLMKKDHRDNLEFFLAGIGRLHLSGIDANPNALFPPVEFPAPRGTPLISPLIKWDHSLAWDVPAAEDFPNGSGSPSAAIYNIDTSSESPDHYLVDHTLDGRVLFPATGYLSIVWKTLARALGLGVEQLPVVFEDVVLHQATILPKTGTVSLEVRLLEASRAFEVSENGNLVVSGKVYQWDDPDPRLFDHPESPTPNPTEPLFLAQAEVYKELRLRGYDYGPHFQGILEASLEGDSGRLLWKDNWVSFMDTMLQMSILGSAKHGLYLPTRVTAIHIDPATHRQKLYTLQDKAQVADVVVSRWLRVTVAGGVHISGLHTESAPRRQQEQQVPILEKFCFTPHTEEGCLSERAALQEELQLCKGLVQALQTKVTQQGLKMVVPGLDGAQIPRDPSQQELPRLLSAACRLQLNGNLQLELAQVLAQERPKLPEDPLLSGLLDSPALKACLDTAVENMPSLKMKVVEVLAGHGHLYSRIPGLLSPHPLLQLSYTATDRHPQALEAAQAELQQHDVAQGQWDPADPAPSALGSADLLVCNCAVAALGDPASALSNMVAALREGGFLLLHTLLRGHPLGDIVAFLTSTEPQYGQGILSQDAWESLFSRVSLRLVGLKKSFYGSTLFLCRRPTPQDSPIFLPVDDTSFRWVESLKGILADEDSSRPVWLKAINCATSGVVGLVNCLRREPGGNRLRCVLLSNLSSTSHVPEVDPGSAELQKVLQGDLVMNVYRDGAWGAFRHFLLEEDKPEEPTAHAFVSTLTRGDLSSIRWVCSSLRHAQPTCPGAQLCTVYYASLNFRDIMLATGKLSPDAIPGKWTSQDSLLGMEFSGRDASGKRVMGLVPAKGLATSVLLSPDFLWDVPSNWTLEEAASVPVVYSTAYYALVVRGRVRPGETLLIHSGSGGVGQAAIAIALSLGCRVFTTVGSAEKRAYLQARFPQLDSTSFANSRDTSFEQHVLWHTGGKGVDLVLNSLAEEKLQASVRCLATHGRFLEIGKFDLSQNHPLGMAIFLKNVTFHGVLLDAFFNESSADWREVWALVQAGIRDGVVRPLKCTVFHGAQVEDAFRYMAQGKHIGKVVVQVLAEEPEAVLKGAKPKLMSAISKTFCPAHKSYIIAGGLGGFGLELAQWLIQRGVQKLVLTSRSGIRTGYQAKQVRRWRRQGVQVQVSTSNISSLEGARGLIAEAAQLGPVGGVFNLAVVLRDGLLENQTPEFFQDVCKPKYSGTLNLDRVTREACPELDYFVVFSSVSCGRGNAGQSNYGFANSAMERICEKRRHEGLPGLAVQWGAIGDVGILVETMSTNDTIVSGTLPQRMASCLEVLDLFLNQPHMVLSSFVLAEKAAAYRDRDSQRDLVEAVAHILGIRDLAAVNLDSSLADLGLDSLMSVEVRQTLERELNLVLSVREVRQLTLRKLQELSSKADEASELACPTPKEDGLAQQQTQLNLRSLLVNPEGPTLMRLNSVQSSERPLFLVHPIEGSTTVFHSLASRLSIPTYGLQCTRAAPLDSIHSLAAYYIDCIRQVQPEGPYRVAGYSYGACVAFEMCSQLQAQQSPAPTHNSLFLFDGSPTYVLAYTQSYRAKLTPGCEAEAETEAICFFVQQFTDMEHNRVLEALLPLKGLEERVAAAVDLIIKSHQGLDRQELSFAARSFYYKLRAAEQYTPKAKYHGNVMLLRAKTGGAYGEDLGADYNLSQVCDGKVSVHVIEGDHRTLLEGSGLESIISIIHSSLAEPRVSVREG

Fatty acid synthase [9] = molecular target: T2, Fatty acid synthase; test: inhibition of human FAS-TE enzyme activity – biochemical, endpoint fluorescence intensity, uHTS hits, dose response (AID 624327); assay type: functional;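 further: fluorescence from hydrolysis of an O-methyl fluorescein acyl ester substrate by the enzyme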
HEK293 [10] = test: inhibition of NOD1-driven NF-kB reporter – cell-based, luminescence, uHTS, primary screen (AID 1578); assay type: functional; settings: Homo sapiens
HEK293 [11] = test: cells; assay type: functional, cell-based; settings: Homo sapiens; remark: listed apart in the source
[12] = inhibition of ARNT PAS-B/TACC3 complex formation – biochemical, AlphaScreen, cherry-picked samples, confirmation (AID 651703); assay type: functional, Homo sapiens;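 further: His-tagged ARNT PAS-B domain paired with GST-TACC3 E629A dimer coactivator fragment; potency of inhibitors that break up the complex and lower AlphaScreen signal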
[13] = molecular target: T3, Sentrin-specific protease 8 (Homo sapiens, UniProt Q96LD8); assay type: functional;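 further: luminescence read-out of SENP8 inhibition, dose-response confirmation following an ultra-high-throughput screen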
T3 sequence (Q96LD8 whole entry): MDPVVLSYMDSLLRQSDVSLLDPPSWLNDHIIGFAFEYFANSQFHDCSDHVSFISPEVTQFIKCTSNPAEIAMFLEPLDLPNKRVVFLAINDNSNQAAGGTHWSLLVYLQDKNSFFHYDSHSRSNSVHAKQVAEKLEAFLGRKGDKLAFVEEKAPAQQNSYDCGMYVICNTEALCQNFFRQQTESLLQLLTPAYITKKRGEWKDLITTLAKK

[14] = viability of HCT116 lacking mutant beta-catenin – cell-based, human colon tumor, dose response (AID 1045); assay type: functional;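 further: HCT116 colon tumor cells with beta catenin knocked out; cells exposed to compound for 60 hours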
Caspase-3 = molecular target: T4, Caspase-3 (Homo sapiens, UniProt P42574); assay type: functional;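 further: Dose-response selectivity test against caspase-3 for candidate inhibitors of sentrin-specific proteases (SENPs)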
T4 sequence (P42574 whole entry): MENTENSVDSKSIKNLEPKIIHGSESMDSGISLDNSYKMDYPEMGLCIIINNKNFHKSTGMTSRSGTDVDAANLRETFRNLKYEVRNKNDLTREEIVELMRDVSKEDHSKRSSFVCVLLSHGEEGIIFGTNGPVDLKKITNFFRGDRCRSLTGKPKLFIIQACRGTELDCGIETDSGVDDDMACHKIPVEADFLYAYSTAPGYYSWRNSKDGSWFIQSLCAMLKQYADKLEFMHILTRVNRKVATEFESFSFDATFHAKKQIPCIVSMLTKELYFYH

[15] = molecular target: T5, Sentrin-specific protease 6 (Homo sapiens, UniProt Q9GZR1); assay type: functional;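 further: Luminescence-based dose-response confirmatory assay of SENP6 inhibition, following up an ultra-high-throughput screen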
T5 sequence (Q9GZR1 whole entry): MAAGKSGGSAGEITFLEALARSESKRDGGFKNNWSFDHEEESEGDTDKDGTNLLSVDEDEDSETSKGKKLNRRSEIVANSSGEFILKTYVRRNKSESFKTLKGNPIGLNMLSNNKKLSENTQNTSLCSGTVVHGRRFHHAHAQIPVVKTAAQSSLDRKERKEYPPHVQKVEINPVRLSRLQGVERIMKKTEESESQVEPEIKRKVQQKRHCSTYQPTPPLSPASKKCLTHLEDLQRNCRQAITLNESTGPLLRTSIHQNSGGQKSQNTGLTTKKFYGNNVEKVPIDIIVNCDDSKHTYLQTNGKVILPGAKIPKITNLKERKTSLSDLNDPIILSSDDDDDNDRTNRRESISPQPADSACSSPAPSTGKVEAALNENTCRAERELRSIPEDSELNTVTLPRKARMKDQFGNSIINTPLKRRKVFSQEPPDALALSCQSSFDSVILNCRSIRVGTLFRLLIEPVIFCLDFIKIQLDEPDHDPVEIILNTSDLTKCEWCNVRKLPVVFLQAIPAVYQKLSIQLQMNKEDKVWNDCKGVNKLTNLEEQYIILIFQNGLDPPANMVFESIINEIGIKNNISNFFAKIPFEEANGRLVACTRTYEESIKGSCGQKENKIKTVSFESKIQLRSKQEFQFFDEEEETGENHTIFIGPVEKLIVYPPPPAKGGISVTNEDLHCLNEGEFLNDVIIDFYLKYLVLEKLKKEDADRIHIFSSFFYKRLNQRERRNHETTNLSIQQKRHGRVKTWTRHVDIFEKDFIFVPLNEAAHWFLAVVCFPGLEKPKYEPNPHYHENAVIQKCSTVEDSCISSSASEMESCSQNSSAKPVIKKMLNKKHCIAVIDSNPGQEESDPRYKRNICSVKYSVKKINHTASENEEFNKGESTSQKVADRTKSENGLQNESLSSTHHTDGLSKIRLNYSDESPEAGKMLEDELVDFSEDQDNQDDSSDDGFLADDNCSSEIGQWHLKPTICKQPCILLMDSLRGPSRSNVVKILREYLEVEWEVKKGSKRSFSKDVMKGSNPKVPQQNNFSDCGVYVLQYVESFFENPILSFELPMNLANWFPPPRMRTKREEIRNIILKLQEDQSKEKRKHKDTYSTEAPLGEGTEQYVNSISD

[16] = viability of PTEN-deleted HCT116 cells – cell-based, HCT116 PTEN knockout, dose response (AID 1047); assay type: functional;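 further: HCT116 colon tumor cells with PTEN knocked out; cells exposed to compound for 60 hours before readout; potency for loss of cell viability measured by luminescence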
[17] = molecular target: T6, Sentrin-specific protease 7 (Homo sapiens, UniProt Q9BQF6); assay type: functional;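 further: Luminescence-based dose-response confirmation of ultra-high-throughput screening hits, measuring inhibition of SENP7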
T6 sequence (Q9BQF6 whole entry): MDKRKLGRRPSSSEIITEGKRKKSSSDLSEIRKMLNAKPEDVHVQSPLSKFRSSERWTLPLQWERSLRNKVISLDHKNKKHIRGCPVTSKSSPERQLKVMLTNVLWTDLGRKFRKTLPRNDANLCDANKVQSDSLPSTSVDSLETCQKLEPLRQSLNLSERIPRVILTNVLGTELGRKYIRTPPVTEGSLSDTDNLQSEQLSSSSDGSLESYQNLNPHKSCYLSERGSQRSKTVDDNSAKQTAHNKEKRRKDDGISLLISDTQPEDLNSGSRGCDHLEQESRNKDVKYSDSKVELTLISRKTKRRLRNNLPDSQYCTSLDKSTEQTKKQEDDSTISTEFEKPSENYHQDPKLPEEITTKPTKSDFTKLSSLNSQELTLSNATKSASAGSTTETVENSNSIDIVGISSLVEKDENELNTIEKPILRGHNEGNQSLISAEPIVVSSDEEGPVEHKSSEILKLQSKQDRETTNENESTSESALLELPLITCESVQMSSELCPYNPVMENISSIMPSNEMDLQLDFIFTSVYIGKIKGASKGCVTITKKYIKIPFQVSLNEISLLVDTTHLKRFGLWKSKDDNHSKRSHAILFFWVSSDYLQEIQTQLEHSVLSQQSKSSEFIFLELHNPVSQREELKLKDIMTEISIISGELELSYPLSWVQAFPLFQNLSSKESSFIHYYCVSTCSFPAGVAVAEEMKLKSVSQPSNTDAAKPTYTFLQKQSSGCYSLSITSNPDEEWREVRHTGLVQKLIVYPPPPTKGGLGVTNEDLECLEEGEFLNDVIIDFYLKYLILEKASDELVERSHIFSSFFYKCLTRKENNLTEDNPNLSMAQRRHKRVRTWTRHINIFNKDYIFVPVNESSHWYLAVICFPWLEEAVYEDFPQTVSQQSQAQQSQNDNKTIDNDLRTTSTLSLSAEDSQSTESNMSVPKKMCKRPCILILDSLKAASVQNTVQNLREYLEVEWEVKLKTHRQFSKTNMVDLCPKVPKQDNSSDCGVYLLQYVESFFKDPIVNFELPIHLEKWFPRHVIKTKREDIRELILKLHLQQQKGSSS

Large T antigen = Large T antigen (Simian virus 40, UniProt P03070); assay type: functional, Betapolyomavirus macacae;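 further: Confirmatory-stage PubChem screen for compounds that inhibit SV40 T antigen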
Sequence of Large T antigen (P03070 whole entry): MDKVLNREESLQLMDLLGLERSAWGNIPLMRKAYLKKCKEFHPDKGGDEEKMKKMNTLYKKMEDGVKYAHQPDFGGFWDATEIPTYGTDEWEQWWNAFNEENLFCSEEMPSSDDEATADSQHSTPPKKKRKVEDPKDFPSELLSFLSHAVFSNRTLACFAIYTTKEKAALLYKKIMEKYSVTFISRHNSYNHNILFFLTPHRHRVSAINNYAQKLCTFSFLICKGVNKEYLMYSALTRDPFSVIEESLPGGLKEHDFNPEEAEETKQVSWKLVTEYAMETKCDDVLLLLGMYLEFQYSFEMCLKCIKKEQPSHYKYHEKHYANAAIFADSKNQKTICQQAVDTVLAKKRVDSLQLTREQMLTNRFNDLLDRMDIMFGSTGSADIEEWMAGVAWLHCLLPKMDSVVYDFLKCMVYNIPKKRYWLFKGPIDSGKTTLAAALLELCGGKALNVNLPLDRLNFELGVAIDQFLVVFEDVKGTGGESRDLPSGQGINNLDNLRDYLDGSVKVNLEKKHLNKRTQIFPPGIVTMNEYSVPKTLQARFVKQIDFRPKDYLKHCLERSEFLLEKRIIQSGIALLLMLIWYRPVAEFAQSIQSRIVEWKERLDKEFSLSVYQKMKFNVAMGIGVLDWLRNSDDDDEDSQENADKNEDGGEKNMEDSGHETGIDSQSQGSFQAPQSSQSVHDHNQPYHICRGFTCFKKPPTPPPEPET

[18] = molecular target: T7, Rac GTPase-activating protein 1 (Homo sapiens, UniProt Q9H0H5); test: blockers of MgcRacGAP-driven Rac1 GTP hydrolysis – biochemical, ADP Hunter fluorescence, primary and confirmatory, confirmation (AID 624330); assay type: functional
T7 sequence (Q9H0H5 whole entry): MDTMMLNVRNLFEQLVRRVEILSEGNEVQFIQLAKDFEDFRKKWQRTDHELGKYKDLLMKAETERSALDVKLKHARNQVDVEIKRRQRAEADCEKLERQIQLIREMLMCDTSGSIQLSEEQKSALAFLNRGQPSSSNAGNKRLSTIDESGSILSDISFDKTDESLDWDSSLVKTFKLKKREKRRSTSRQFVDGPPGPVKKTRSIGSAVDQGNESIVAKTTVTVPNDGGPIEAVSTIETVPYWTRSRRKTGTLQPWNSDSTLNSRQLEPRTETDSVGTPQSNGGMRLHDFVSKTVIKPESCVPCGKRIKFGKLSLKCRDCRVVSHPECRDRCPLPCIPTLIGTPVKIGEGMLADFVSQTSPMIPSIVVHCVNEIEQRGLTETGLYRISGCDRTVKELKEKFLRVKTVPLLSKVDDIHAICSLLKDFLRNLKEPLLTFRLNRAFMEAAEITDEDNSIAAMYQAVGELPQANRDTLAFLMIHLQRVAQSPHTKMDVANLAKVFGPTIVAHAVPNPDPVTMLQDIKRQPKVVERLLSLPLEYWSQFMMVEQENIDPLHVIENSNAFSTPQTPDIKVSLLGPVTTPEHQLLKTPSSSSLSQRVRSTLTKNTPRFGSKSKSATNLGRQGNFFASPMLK

For O=C1S/C(=C\c2ccc(O)c([N+](=O)[O-])c2)C(=O)N1Cc1cccc([N+](=O)[O-])c1, the IC50 (HEK293 [1]) was 5.79 µM (inactive), the IC50 [2] was 4.71 µM (active) and the IC50 (HEK293 [3]) was 7.53 µM (active). The IC50 [4] was > 20 µM (inactive), the IC50 (HEK293 [5]) was > 20 µM (inactive) and the EC50 [6] was > 53 µM (inactive). The EC50 [7] was 4.39 µM (active), the IC50 (Fatty acid synthase [8]) was 3.73 µM (active) and the IC50 (Fatty acid synthase [9]) was 3.83 µM (active). For the same compound, the EC50 (HEK293 [10]) was 4.33 µM (active) and the IC50 (HEK293 [11]) was 17.1 µM (active).

With O=C(Nc1ccc2c(c1)[C@@H]1C[C@H](CC(=O)N3CCc4ccccc4C3)O[C@@H](CO)[C@@H]1O2)c1ccc2c(c1)OCO2 the AC50 [12] was 134 µM (active).

For CCCSC(=N)N/N=C/c1cc(C)ccc1O, the IC50 [13] was > 100 µM (inactive), the EC50 [14] was 30 µM (active) and the IC50 (Caspase-3) was 46.3 µM (active). The IC50 [15] was 93.5 µM (active), the EC50 [16] was 32.5 µM (active) and the IC50 [17] was 11.4 µM (active).

For CCOc1cc(/C=N/NC(=O)CSc2cccc3cccnc23)ccc1O, the IC50 (Large T antigen) was 7.45 µM (active), the IC50 [18] was 34.2 µM (active) and the AC50 [12] was 90 µM (active).

With C(=N\Nc1nc(-c2ccccc2)cs1)/c1cccs1 the IC50 [13] was 31.6 µM (active), the IC50 (Caspase-3) was 29.8 µM (active) and the IC50 [15] was 12.8 µM (active). The IC50 [17] was 4.19 µM (active).
